Data set [1] deals with T1, albumin (Bos taurus, UniProt P02769).
T1 construct: Serum proteins have a retention span of ∼2–4 min as part of the high-molecular weight fraction with albumin at ∼4 min; tissue Sigma-Aldrich; host or cells: fetal calf serum (whole serum, buffered with 150 mM phosphate buffer pH 7.4)
Kind of data set: Albumin binding in fetal calf serum, SEC-ICP-MS. In kind it is in vitro ADME. The conditions noted are these: 50 μM in FCS, 37 °C, up to 24 h. How it is done: FCS was purchased from Sigma-Aldrich and buffered with 150 mM PB pH 7.4 to guarantee a stable pH. The platinum(IV) complexes were dissolved in 150 mM PB (pH 7.4) at a concentration of 5 mM and diluted 1 : 100 in the buffered serum to obtain a final concentration of 50 μM. The samples were then incubated in an autosampler at 37 °C and analyzed for 24 h. Between each sample, a pure water blank was measured. For SEC-ICP-MS measurements an Agilent 1260 Infinity system coupled to an Agilent 7800 ICP-MS equipped with a dynamic reaction cell was used. Oxygen (purity 5.5, Messer Austria GmbH, Gumpoldskirchen, Austria) was used as a reaction gas.

Data set [2] in a line: Hematological analysis 24 h after the second dose. Particulars: 24 h after second dose; for anemia: two i.v. doses equimolar to 9 mg kg^−1 oxaliplatin. The procedure:
(§1) Mice were kept in groups of four per cage with sterilized paper-based environmental enrichment and food and water ad libitum, under pathogen-free conditions and a controlled environment with a 12 h light–dark cycle. Syngeneic models of colorectal carcinoma were generated via subcutaneous injection of CT-26 cells (0.5 × 10^6 cells in 50 μL of serum-free RPMI-1640 medium) into the right flank of 8–12 weeks old BALB/c mice. […] All animals were euthanized 24 h after the second dose. […] To determine the anticancer efficacy of the investigated compounds, treatment started 4 d after tumor implantation, when all tumors were measurable (>25 mm^3) using a twice-weekly treatment scheme for two weeks. Tumor size was determined daily via manual caliper measurement. The tumor volume was calculated as tumor volume = (length × diameter × diameter)/2. The overall condition, shape, and activity of the animals were assessed daily. Peripheral blood was collected from the submandibular vein in K3E K3EDTA tubes (Greiner Bio-One; Kremsmünster, AUT) on ice and was analyzed for hematological parameters (red blood cells (RBCs), hemoglobin (HGB), hematocrit (HCT), red cell distribution width (RDW), mean corpuscular volume (MCV), white blood cells (WBCs), lymphocytes (LYM), monocytes (MO), granulocytes (GRA), and platelets (PLT) using a Vet ABC hematology analyzer (scil Animal Care GmbH, Viernheim, Germany). EDTA-blood was centrifuged (900g, 10 min) twice and the supernatant (EDTA-plasma) was stored at −20 °C for subsequent cytokine/chemokine analysis using a Luminex detection platform. All animal experiments were performed with humane endpoints based on Federation of European Laboratory Animal Science Associations guidelines and according to the regulations of the Ethics Committee for the Care and Use of Laboratory Animals at the Medical University Vienna (proposal number BMBWF 2023–0.122.324). Animals were euthanized upon reaching a tumor volume of >1500 mm^3, a loss in body weight (>20%), tumor ulceration or other indications of deteriorated health. Animals were euthanized via cervical dislocation.

Data set [3] is described as follows: Platinum distribution study in vivo by ICP-MS. Particulars: i.v., 24 h after second dose; for serum platinum levels: two doses. Also on record: species or system CT-26 tumor-bearing BALB/c mice. The procedure: (§2) Tumor size was determined daily via manual caliper measurement. […] Animals were euthanized via cervical dislocation.
The generation and treatment of tumor-bearing mice are outlined in the section “In vivo syngraft experiments” described above. Mouse tissues were processed as described previously.[13] Briefly, serum was isolated from peripheral blood by centrifugation (900g, 10 min, 4 °C, twice). Tissues were digested in 20% nitric acid and hydrogen peroxide using an open-vessel graphite digestion system. The platinum concentration was determined by ICP-MS analysis; for details see “Intracellular platinum accumulation in vitro by ICP-MS”.

Data set [4] can be described thus: Body weight of treated animals. The conditions noted are these: peritumoral application. In kind it is in vivo, CT-26-bearing BALB/c mice. How it is done: as §2
Data set [5] in a line: Cytokine and chemokine levels in plasma of treated animals, Luminex. It is filed as in vivo, CT-26-bearing BALB/c mice. Particulars: 24 h after second dose. The procedure: Next, the ProcartaPlex (96-well) multiplex assay panel was performed according to the manufacturer's recommendations. In brief, the capture bead mix was incubated with test samples (undiluted SN or mouse plasma) or standard mix overnight. The SN of three independent experiments or the plasma of four animals per treatment group was loaded onto the multiplex assay plate. Next, biotinylated detection antibody mix and Streptavidin-PE were added to the plate. Following the recommended washing steps, the samples were incubated in a reading buffer and were measured using a Luminex xMAP platform (Bio-Plex MAGPIX Multiplex Reader; Bio-Rad Laboratories) and analyzed using xPONENT software.
as §2

For data set [6], the system named is THP1-Dual cells. As to the kind of experiment: Intracellular platinum accumulation in vitro by ICP-MS. In kind it is cell-based, human. The conditions noted are these: 3 h exposure; for cellular platinum accumulation: compared to oxaliplatin. The procedure: The THP1-Dual cell model was seeded at 1 × 10^6 cells per well in six-well plates. After 24 h of recovery, the compounds were applied at the concentrations indicated in triplicate. After 3 h of drug exposure, the cells were prepared as published previously.[13] […] The lysate was filled up to 8 mL with water. The platinum concentration was determined by ICP-MS analysis. Platinum and rhenium standards were derived from CPI International (Amsterdam, the Netherlands). The total platinum content was determined with an Agilent 7800 quadrupole-based ICP-MS instrument (Agilent Technologies, Tokyo, Japan) equipped with an Agilent SPS 4 autosampler (Agilent Technologies, Tokyo, Japan) and a MicroMist nebulizer at a sample uptake rate of approximately 0.2 mL min^−1. […] Argon was used as a plasma gas (15 L min^−1) and as a carrier gas (∼1.1 L min^−1). The dwell time was set to 0.1 s and the measurements were performed in 12 replicates with 100 sweeps. Rhenium served as an internal standard for platinum.

A short description of data set [7]: Hematological analysis after long-term treatment. Particulars: 72 h after the fourth dose. How it is done:
as §1

Data set [8] deals with HCT116 cells. As to the kind of experiment: MTT-based cell viability assay, 72 h. Also on record: species or system human. The conditions noted are these: without AA. The procedure: Cell models were seeded (2–2.5 × 10^3 cells per well) in 96-well plates. After 24 h of recovery, the compounds were applied at the concentrations indicated in triplicate. Cell viability was determined after 72 h of continuous drug incubation using an MTT-based cell viability assay (EZ4U, Biomedica, Vienna, Austria) according to the manufacturer's recommendations. Absorbance was measured at 450 nm (vs. 620 nm as reference) using a multimode microplate reader (Tecan Spark, Zurich, Switzerland). Half-maximal inhibitory concentrations (IC50 values) were derived via interpolation from dose–response curves, modeled with the four-parameter logistic (4PL) nonlinear regression model in GraphPad Prism (La Jolla, CA, USA) from at least three independent experiments.

The structures appear in SMILES notation.

T1 sequence (P02769 25-607): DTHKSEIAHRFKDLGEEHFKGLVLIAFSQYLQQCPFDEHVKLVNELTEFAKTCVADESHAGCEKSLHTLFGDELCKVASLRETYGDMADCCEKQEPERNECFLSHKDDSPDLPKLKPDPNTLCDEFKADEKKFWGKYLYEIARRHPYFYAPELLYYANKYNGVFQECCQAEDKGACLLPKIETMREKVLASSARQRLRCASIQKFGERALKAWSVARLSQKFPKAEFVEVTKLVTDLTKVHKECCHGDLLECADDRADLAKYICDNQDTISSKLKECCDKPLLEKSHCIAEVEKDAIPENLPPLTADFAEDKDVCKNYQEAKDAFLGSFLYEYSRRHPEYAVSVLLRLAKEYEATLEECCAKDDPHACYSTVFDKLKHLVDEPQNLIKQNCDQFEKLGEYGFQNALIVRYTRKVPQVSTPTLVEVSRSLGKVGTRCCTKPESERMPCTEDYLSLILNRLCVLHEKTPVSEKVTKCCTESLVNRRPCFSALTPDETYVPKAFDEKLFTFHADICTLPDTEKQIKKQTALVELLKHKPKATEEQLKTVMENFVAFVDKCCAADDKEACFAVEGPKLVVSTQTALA

On to `COCCOCCOCCOCCNC(=O)[O][Pt-2]12([O]C(=O)CCC(=O)c3cc4cc(OC)c(OC)cc4s3)([NH2+][C@@H]3CCCC[C@H]3[NH2+]1)[O]C(=O)C(=O)[O]2` [Ox-MSA-PEG-Ca, (OC-6-34)-[(1R,2R)-1,2-cyclohexanediamino]-oxalato-[4-(5,6-dimethoxybenzo[b]thiophen-2-yl)-4-oxobutylcarboxylato]-[3,6,9,12-tetraoxatridecan-1-amino]platinum(IV)], for which the “ability to conjugate to albumin” value in data set [1] is listed as “lacked the ability to conjugate to albumin”. For the same molecule, the anemia result in data set [2] is reported as “not”. For the same molecule, in data set [3] (two doses equimolar to 9 mg kg^−1 oxaliplatin), the “liver platinum level relative to tumor” value stood at 9.7 fold. For the same molecule, the serum platinum levels entry in data set [3] was “Low serum platinum levels”. Besides, the “effect on body weights” value in data set [4] is recorded as “without negative effects on body weights”. The “plasma IFN-β, IL-6 and M-CSF” value in data set [5] is on record as “highest activations”.
As to `COCCOCCOCCOCCC(=O)[O][Pt-2]12([O]C(=O)CCC(=O)c3cc4cc(OC)c(OC)cc4s3)([NH2+][C@@H]3CCCC[C@H]3[NH2+]1)[O]C(=O)C(=O)[O]2` [Ox-MSA-PEG-Es, (OC-6-44)-[(1R,2R)-1,2-cyclohexanediamino]-oxalato-[4-(5,6-dimethoxybenzo[b]thiophen-2-yl)-4-oxobutylcarboxylato]-[2,5,8,11-tetraoxatetradecanoato]platinum(IV)], the “cellular platinum content vs oxaliplatin” value in data set [6] (10 μM) is “significantly higher platinum content”. Besides, the “intracellular platinum levels vs oxaliplatin” value in data set [6] (50 μM, without statistical significance) is on record as “lower intracellular platinum levels”. Moreover, the cellular platinum accumulation entry in data set [6] was “did not show a comparable amount of platinum hyper-accumulation”.
Regarding `O=C1[O][Pt]2([NH][C@@H]3CCCC[C@H]3[NH]2)[O]C1=O` [oxaliplatin, reference compound], in data set [7], the “platelet counts (PLT) / thrombocytopenia” value is “distinctly reduced platelet counts”. Moreover, in data set [7] (i.v. twice a week for two weeks), the “absolute counts of white blood cells and subpopulations” value was “massively lowered”. Besides, in data set [6], the cellular platinum accumulation result is listed as “accumulated dose-dependently”. Further, in data set [2], the “red blood cell counts (RBCs), hematocrit (HCT), red cell distribution width (RDW)” value is listed as “clearly lowered” and the anemia entry is recorded as “anemia”. Moreover, the serum platinum levels entry in data set [3] is given as “Low serum platinum levels”. Moreover, the concentration for half-maximal inhibition (IC50) in data set [8] was determined as 800 nM.

By IC50 is commonly meant the concentration that inhibits the measured activity by half. The low end stands for greater potency, the high end for weaker potency.

For the origin of these results see PMC11969438 (Inorganic Chemistry Frontiers, 2025).
